In paper PMC9862037, “Interactions of Mycotoxin Alternariol with Cytochrome P450 Enzymes and OATP Transporters” (Metabolites, 2022):

Experiments:
OATP2B1 = biological target: T1, OATP2B1 (Homo sapiens, UniProt O94956); assay: cell-based; conditions: A431-OATP2B1; pyranine 20 µM; pH 5.5; 15 min; read-out: IC50, OATP2B1 inhibition
T1 construct: expressed in transfected cells; host or cells: A431
Protocol: (§1) A431 cell lines overexpressing human OATPs (1A2, 1B1, 1B3, or 2B1) and their mock transfected controls were generated earlier. A431 cells expressed no or negligible OATPs compared to the overexpressing cell lines. Cells were cultured in Dulbecco’s modified Eagle medium (DMEM, Thermo Fisher Scientific, Waltham, MA, USA) with 10% fetal bovine serum, 2 mM L-glutamine, 100 U/mL penicillin, and 100 µg/mL streptomycin at 37 °C, with 5% CO2. OATP expression was regularly monitored (based on the transport activity of transfected cells), and the cells were used up to 20 passages.
(§2) Interaction between OATPs (1A2, 1B1, 1B3, and 2B1) and AOH was measured in an indirect transport assay with pyranine or sulforhodamine 101 as fluorescent probes. A431 cell overexpressing OATPs or their mock transfected controls were seeded on 96-well plates one day prior to the measurements in 200 µL DMEM in 8 × 10^4 cells/well density. Before the measurement, the medium was removed, and cells were washed three times with 200 µL PBS (phosphate-buffered saline, pH 7.2) at room temperature. Then the cells were preincubated with 50 µL uptake buffer (125 mM NaCl, 4.8 mM KCl, 1.2 mM CaCl2, 1.2 mM KH2PO4, […], 25 mM MES, and 5.6 mM glucose, with the pH adjusted using 1 M HEPES and 10 N NaOH, pH 5.5 for OATP1B1/1B3/2B1 and pH 7.4 for OATP1A2) with or without increasing concentrations (0.00, 0.16, 0.31, 0.63, 1.25, 2.5, 5.0, 10, and 20 μM) of AOH for 5 min. The reaction was started when the probe was added in 10 µM (pyranine; OATP1B1), 20 µM (pyranine; OATP2B1 and OATP1B3), or 0.5 µM (sulforhodamine 101; OATP1A2) final concentrations. […] Fluorescence was measured in an Enspire plate reader (Perkin Elmer, Waltham, MA, USA) in Ex/Em wavelengths 460/510 nm for pyranine and 586/605 nm for sulforhodamine 101. Bottom reading was applied with two horizontal (X) and two vertical (Y) points, measurement height was 3 mm with 200 flashes. IC50 values were calculated by sigmoidal fitting (Hill1), using the Origin (version 2018, OriginLab Corporation, Northampton, MA, USA) software.

OATP1A2 = biological target: T2, OATP1A2 (Homo sapiens, UniProt P46721); assay: cell-based; conditions: A431-OATP1A2; sulforhodamine 101 0.5 µM; pH 7.4; 10 min; read-out: IC50, OATP1A2 inhibition
T2 construct: expressed in transfected cells; host or cells: A431
T2 sequence (P46721 whole entry): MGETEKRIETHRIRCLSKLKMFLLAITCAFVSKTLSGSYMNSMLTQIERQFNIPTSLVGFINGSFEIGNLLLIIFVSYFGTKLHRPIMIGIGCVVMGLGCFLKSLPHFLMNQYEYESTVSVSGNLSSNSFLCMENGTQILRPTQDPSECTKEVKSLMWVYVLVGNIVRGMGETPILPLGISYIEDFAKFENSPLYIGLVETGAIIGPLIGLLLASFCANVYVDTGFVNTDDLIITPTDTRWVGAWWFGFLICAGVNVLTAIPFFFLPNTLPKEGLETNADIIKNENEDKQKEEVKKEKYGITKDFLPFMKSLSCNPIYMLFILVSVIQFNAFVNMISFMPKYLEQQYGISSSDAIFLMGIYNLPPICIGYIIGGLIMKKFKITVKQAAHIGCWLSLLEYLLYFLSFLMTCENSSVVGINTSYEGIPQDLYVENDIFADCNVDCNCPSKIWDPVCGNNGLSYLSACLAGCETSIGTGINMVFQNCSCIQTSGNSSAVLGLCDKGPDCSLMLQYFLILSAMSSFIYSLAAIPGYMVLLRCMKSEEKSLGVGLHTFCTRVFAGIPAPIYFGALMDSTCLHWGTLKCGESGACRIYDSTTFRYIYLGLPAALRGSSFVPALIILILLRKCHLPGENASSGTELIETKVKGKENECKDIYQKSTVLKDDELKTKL
Protocol: as §1, §2

OATP1B3 = biological target: T3, OATP1B3 (Homo sapiens, UniProt Q9NPD5); assay: cell-based; conditions: A431-OATP1B3; pyranine 20 µM; pH 5.5; 30 min; read-out: IC50, OATP1B3 inhibition
T3 construct: expressed in transfected cells; host or cells: A431
T3 sequence (Q9NPD5 whole entry): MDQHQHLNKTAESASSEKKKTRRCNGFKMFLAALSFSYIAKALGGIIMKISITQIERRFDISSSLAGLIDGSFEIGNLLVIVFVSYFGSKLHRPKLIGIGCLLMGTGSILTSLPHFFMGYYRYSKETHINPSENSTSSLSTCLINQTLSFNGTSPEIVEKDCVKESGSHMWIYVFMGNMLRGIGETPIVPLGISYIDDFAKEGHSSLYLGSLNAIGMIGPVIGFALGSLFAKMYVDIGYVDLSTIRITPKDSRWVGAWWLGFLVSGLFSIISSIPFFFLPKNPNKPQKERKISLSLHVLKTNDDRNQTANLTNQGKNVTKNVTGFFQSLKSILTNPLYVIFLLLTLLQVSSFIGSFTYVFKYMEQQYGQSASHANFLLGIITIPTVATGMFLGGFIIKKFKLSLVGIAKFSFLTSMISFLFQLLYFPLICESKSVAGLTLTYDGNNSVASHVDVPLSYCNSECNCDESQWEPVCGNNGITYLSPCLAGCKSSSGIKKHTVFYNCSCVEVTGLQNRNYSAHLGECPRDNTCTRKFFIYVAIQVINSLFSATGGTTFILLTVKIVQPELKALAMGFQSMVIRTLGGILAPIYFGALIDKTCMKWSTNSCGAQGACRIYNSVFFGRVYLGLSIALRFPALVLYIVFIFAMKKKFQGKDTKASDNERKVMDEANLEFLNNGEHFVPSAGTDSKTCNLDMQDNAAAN
Protocol: as §1, §2

CYP2C9 = biological target: T4, CYP2C9 (Homo sapiens, UniProt P11712); assay: biochemical
T4 construct: purchased Merck; host or cells: yeast (inferred from the description of the CYPnull control, 'processed identically')
T4 sequence (P11712 whole entry): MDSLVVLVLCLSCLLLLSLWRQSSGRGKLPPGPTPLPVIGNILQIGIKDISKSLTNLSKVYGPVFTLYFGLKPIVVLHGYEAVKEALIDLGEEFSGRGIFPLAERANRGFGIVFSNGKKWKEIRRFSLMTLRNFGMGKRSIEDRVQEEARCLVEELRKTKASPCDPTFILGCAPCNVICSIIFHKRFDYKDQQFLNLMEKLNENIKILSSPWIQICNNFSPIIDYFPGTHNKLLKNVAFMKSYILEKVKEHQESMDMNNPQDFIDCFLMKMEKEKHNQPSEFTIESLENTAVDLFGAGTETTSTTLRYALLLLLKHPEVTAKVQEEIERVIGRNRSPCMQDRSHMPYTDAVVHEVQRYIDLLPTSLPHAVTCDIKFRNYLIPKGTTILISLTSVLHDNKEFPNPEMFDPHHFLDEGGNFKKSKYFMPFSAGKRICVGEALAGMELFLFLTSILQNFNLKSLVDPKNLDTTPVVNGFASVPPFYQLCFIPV
Protocol: The potential inhibitory effects of AOH on CYP2C9, 2C19, 2D6, and 3A4 enzymes were tested in vitro employing CypExpress human kits, using the substrates recommended by the U.S. Food and Drug Administration (FDA; https://www.fda.gov/drugs/drug-interactions-labeling/drug-development-and-drug-interactions-table-substrates-inhibitors-and-inducers; accessed on 19 December 2022) (diclofenac, S-mephenytoin, dextromethorphan, and testosterone, respectively). […] In these assays, the substrates and products were quantified by HPLC-UV [28].
IC50 values were calculated by sigmoidal fitting (Hill1), using the Origin (version 2018, OriginLab Corporation, Northampton, MA, USA) software.
After CYP450 incubations, the product formation rate was investigated using an integrated HPLC system (Jasco, Tokyo, Japan) built up from an autosampler (AS-4050), a binary pump (PU-4180), and a UV detector (UV-975). Chromatographic data were evaluated employing ChromNAV2 software (Jasco, Tokyo, Japan). Quantitative determinations of 4′-hydroxydiclofenac and diclofenac (CYP2C9), 4-hydroxymephenytoin and mephenytoin (CYP2C19), dextromethorphan and dextrorphan (CYP2D6), as well as testosterone and 6β-hydroxytestosterone (CYP3A4) were carried out as previously reported, without modifications.

T1 sequence (O94956 whole entry): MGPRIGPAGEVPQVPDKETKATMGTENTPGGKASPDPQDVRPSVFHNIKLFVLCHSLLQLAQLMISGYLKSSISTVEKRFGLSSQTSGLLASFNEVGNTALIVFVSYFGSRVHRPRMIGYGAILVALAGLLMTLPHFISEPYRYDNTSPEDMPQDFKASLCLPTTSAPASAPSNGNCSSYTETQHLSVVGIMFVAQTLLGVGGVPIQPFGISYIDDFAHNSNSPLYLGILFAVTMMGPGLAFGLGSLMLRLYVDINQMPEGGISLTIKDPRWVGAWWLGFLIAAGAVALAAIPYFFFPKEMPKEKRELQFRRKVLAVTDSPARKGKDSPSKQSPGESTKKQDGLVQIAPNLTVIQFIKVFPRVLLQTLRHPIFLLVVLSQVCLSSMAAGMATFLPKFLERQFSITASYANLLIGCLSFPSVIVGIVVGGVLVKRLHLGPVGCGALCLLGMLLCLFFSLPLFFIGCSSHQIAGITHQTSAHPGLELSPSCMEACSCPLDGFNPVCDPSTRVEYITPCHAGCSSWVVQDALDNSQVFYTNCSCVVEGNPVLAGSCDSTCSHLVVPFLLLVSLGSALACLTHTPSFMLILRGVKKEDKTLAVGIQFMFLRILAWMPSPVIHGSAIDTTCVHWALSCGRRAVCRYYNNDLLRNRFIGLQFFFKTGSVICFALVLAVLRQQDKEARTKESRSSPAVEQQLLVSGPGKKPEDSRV

Work on Cc1cc(O)cc2oc(=O)c3c(O)cc(O)cc3c12 [AOH, Alternariol] yielded an IC50 (OATP2B1) of 1.9 µM, an IC50 (OATP1A2) of 5.4 µM and an IC50 (OATP1B3) of 4.1 µM. For the same molecule, the “decrease in the product formation (CYP2C9)” value (CYP2C9; 50 μM AOH) was over 80% and the IC50 (CYP2C9; diclofenac 4'-hydroxylation, read-out: IC50, CYP2C9 inhibition) was 7.4 µM.
